The record followed here is ChEMBL document CHEMBL1150840, “Onnamide F: a new nematocide from a southern Australian marine sponge, Trachycladus laevispirulifer” (2001).

Test [1] relates to Haemonchus contortus. In words: Nematocidal activity against Haemonchus contortus. The format is functional.
Test [2] relates to Saccharomyces cerevisiae. In words: Antifungal activity against Saccharomyces cerevisiae. Format: functional.
In test [3] the test system is Bacillus subtilis. The test is described as follows: Antibacterial activity against Bacillus subtilis. Format: functional, organism-based.
The test system of test [4] is Escherichia coli. In words: Antibacterial activity against Escherichia coli. Format: functional, organism-based.
Test [5] deals with Haemonchus contortus. The test is described as follows: Nematocidal activity against Haemonchus contortus assessed as inhibition of larval development at L1 stage at high concentration. Format: functional, organism-based.

Activity calls are given as the source filed them. The calls are words filed in the database; no cut-off is given here.

For the molecule `C=C1C[C@](OC)([C@H](O)C(=O)N[C@@H](OC)[C@@H]2C[C@@H](OC)C(C)(C)[C@@H](CC(O)CCC/C=C/C=C/C(=O)OC)O2)O[C@H](C)[C@@H]1C` (some centres not stated) [ONNAMIDE F METHYL ESTER], the LD99 was found to be 2.6 µg/mL in test [1] and 5.2 µg/mL in test [2].

In the case of `C=C1C[C@](OC)([C@H](O)C(=O)N[C@@H](OC)[C@@H]2C[C@@H](OC)C(C)(C)[C@@H](CC(O)CCC/C=C/C=C/C(=O)O)O2)O[C@H](C)[C@@H]1C` (some centres not stated) [ONNAMIDE F], the figures for the LD99 in test [1] and in test [2] were 5.2 µg/mL and 1.4 µg/mL, respectively. Also, the result in test [3] and in test [4] was inactive. Besides, the inhibition result in test [5] was “Active”.
